The source of these data is publication PMC5889558, “The inhibition of human lung fibroblast proliferation and differentiation by Gs-coupled receptors is not predicted by the magnitude of cAMP response” (Respiratory Research, 2018).

What all share (format): cell-based
Data set [1] has as its system human lung fibroblasts (HLF). Put plainly: Cell viability assay, caspase-3/7 as marker of apoptosis. The settings on record: 24 h. Here is the method:
Cell viability was measured using caspase-3/7 expression as a marker of apoptosis after treatment for 24 h with test compounds. HLF were seeded overnight at 6,000 cells/well in 96-well black ViewPlates, before being starved for 24 hours in culture medium devoid of FBS. Cells were incubated for 24 hours in the presence of test compounds at the top concentrations used in the proliferation assays, or in the presence of 100 nM staurosporine to induce apoptosis.
The presence of the apoptotic marker caspase-3/7 was detected by incubating cells with 8 μM CellEvent™ Caspase-3/7 Red Detection Reagent in dPBS with 5 % FBS, for 30 minutes at 37°C. […] Images were analyzed using a multi wavelength cell scoring algorithm within the MetaXpress 5.3 software, which measures cell number using stained nuclei, and percent of these cells positive for caspase-3/7 from Cy5 readouts. To account for the inter-assay variation in levels of caspase 3/7 detected in each experiment, data were normalized to the staurosporine response.
Statistical significance across treatment groups was determined by using the one-way ANOVA with Dunnett’s multiple-comparison post hoc test.

Data set [2] has as its system human lung fibroblasts (HLF). Put plainly: HLF proliferation by BrdU incorporation (DELFIA), driven by FBS or PDGF. The settings on record: 24 h; for Emax / EC50: Homo sapiens, Fibroblast; for Emax / EC50 / Proliferation vs PDGF Emax (% max) / Proliferation vs PDGF pEC50 / Proliferation vs serum pEC50 / Proliferation vs serum Emax (% max): inhibition of BrdU incorporation, NC = not calculated due to incomplete curve; for EC50 / Proliferation vs PDGF pEC50 / Proliferation vs serum pEC50: mean ± SEM; for maximal level of inhibition of PDGF-driven proliferation: near maximal PDGF; for inhibition of FBS- and PDGF-driven proliferation (in words): either stimulus. Here is the method: Proliferation of HLF was measured by incorporation of bromodeoxyuridine (BrdU). HLF were seeded overnight at 4000 cells/well in 96-well black ViewPlates, before being starved for 24 h in culture medium devoid of FBS. Proliferation was measured after incubation with a range of concentrations of FBS or PDGF, in DMEM supplemented with 0.1% w/v HSA, for 24 h.
For anti-remodelling assays using BrdU incorporation, cells were incubated for 24 h with a range of concentrations of test compounds in the presence of near maximal concentrations of FBS or PDGF in DMEM supplemented with 0.1% w/v HSA. Proliferation was assessed using the DELFIA BrdU incorporation assay kit following manufacturer protocol. Fluorescence was measured using a Packard EnVision plate reader. To account for the inter-assay variation in levels of proliferation in each experiment, data were normalized to the PDGF or FBS response.

Data set [3] concerns human lung fibroblasts (HLF). Put plainly: Fibroblast to myofibroblast transdifferentiation (FMT), αSMA immunofluorescence, TGFβ-driven. Conditions: 48 h, TGFβ 0.3 ng/mL. As for the experimental part:
To assess the differentiation of fibroblasts to the myofibroblast phenotype, immunofluorescence was used to monitor increases in α smooth muscle actin (αSMA). HLF were seeded overnight at 1000 cells/well in 384-well black clear bottom plates, before being starved for 24 h growth medium devoid of FBS.
For anti-remodelling assays using FMT, cells were incubated for 48 h with a range of concentrations of test compounds and incubated for 48 h, at 37°C, 5% CO2 in the presence of a near maximal concentration of TGFβ (0.3 ng/mL), to promote differentiation in DMEM supplemented with 0.1% w/v HSA. Following stimulation, cells were fixed in 4% paraformaldehyde, washed 3× in PBS (with Ca^2+/Mg^2+), and incubated with permeabilising blocking buffer (dPBS (with Ca^2+/Mg^2+), 10% FBS (v/v), 0.1% Triton X-100 (v/v)) for 1 h at 37°C. Wells were then washed 3× in wash buffer (Tris Buffered Saline (TBS), 0.05% (v/v) Tween-20) and incubated with mouse anti-α SMA (1:1000 dilution in permeabilising blocking buffer) for 1 h at room temperature, with gentle shaking. Following 3× wash in wash buffer, wells were incubated with blocking buffer containing Hoechst to stain for nuclear DNA (2 μM), and FITC-conjugated Affini-pure goat […] IgG (1:1000 dilution in blocking buffer) for 30 min at 37°C. Fluorescence was then quantified on a widefield ImageXpress Micro microscope, with a Plan Fluor 20X objective, DAPI filter cube (excitation 400–418 nm, emission 435–470 nm), 50 ms exposure time for nuclei, and FITC filter cube (excitation 467–498 nm, emission 513–556 nm), 200 ms exposure time for αSMA.
To quantify increases in αSMA fluorescence, a standard Multi-Wavelength Cell Scoring algorithm was used in MetaXpress 5.3 software (Molecular Devices, California, USA). To account for the inter-assay variation in levels of αSMA expression produced in each experiment, data were normalized to the response to TGFβ.

The subject of data set [4] is human lung fibroblasts (HLF). Put plainly: cAMP accumulation in HLF (HitHunter or AlphaScreen). The settings on record: HLF; for EC50 / Emax: Homo sapiens, Fibroblast; for EC50 / Emax / cAMP pEC50 / cAMP Emax (% max): 2 h, mean ± SEM, NC = not calculated due to incomplete curve; for EC50 / cAMP pEC50: room temperature, 5 μM rolipram (excluded for PDE inhibitors), at least 3 experiments; for EC50: read-out: cAMP pEC50 (converted); for Emax / cAMP Emax (% max): percentage of the maximal forskolin response; for Emax: read-out: cAMP Emax (% max). Here is the method: HLF were grown to confluency in 96-well white ViewPlates, before incubation with a range of agonist concentrations, or vehicle, for 2 h at room temperature in HBSS with 5 mM HEPES, 0.1% w/v HSA, and 5 μM rolipram. […] Rolipram was excluded when measuring cAMP levels in response to PDE inhibitors. cAMP levels were measured using either HitHunter cAMP assay or AlphaScreen competition assay following manufacturer protocol, and were assessed on either a BMG LABTEK ClarioStar or a Packard EnVision plate reader. cAMP concentrations in each well were determined using a standard curve. To account for the inter-assay variation in levels of cAMP produced in each experiment, data were normalized to the maximal forskolin response.

Data set [5] relates to human lung fibroblasts (HLF). Put plainly: HLF proliferation by nuclei count. Here is the method: Proliferation of HLF was measured by nuclei count. Human lung fibroblasts (HLF) were seeded overnight at 4,000 cells/well in 96-well black ViewPlates, before being starved for 24 h in culture medium devoid of FBS. Proliferation was measured after incubation with a range of concentrations of FBS or PDGF, in DMEM supplemented with 0.1 % w/v HSA, for 24, 48, 72, or 96 h for nuclei count assay.
For anti-remodelling assays, cells were incubated for 48 h with a range of concentrations of test compounds in the presence of an EC80 concentration of FBS (1.8 % v/v). Following stimulation, cells were fixed with 4 % PFA and nuclei stained with Hoechst 33342 (1 μM) for 15 minutes at room temperature. Cells were then washed three times with dPBS before the plate was read using the widefield ImageXpress Micro microscope, with a Plan Fluor 4X objective, DAPI filter cube (excitation 400-418nm, emission 435-470nm), and 50 ms exposure time. Images were analysed using a nuclear count algorithm within the MetaXpress 5.3 software (Molecular Devices, California, USA). To account for the inter-assay variation in levels of proliferation in each experiment, data were normalized to the EC80 FBS response.

Setting [6] is: EC80 PDGF, percentage of maximal proliferation observed with PDGF, read-out: Proliferation vs PDGF Emax (% max).
Setting [7] is: EC80 concentration of PDGF, read-out: Proliferation vs PDGF pEC50 (converted).
Setting [8] is: HLF, 1:10 dilution of top conc 30 μM.
The mark [9] stands for this setting: EC80 PDGF, percentage of maximal proliferation observed with PDGF.
Setting [10] is: EC80 serum, percentage of maximal proliferation observed with serum.

Take `OCc1cc(C(O)CNCCCCCCOCCCCc2ccccc2)ccc1O` (stereo not shown) [Salmeterol]: the “% cells positive for caspase-3/7, 1:10 dilution” value (“% cells positive … 1:10 dilution” below) in data set [1] (human, 10 nM) is reported as 0.66 ± 0.24%. Moreover, in data set [1] (human, 100 nM), the “% cells positive for caspase-3/7, Top conc” value (from here on “% cells positive … Top conc”) is listed as 0.40 ± 0.12%. Further, the Emax is 89.2 ± 0.27% in data set [2] (setting [6]); 37.7 ± 7.33% in data set [2] (EC80 serum, percentage of maximal proliferation observed with serum, read-out: Proliferation vs serum Emax (% max)); 45.8 ± 3.53% in data set [4]. Besides, the EC50 is 0.0316 nM in data set [2] (setting [7]); 0.263 nM in data set [2] (EC80 concentration of serum, read-out: Proliferation vs serum pEC50 (converted)); 0.123 nM in data set [4]. Moreover, the “maximal level of inhibition of FMT” value in data set [3] is on record as 51 % of the TGFβ response.

In the case of `NCCc1ccc(O)c(O)c1` [Dopamine], in data set [1] (human, 3 μM), the “% cells positive … 1:10 dilution” value stood at 1.21 ± 0.34%. In addition, in data set [1] (human, 30 μM), the “% cells positive … Top conc” value is 0.83 ± 0.14%. The Emax was 73.5 ± 13.5% in data set [2] (setting [6]) and 41.2 ± 10% in data set [4]. In addition, the EC50 in data set [2] (setting [7]) is 16600 nM; in data set [4], 4070 nM. Besides, the “inhibition of TGFβ-driven FMT (in words)” value in data set [3] is “full concentration-response curves could not be established”.

`CCNC(=O)[C@H]1O[C@@H](n2cnc3c(N)ncnc32)[C@H](O)[C@@H]1O` [NECA]: the “% cells positive … 1:10 dilution” value in data set [1] (setting [8]) is on record as 0.67 ± 0.09%. Further, the “% cells positive … Top conc” value in data set [1] (HLF, top conc 30 μM) is recorded as 1.04 ± 0.20%. Further, the “maximal level of inhibition of PDGF-driven proliferation” value in data set [2] (BrdU) amounted to 38%. Also, in data set [2] (setting [9]), the “Proliferation vs PDGF Emax (% max)” value is 37.8 ± 14.7 % max. Further, the “Proliferation vs PDGF pEC50” value in data set [2] (EC80 concentration of PDGF) is recorded as 6.94 ± 0.43. The “inhibition of TGFβ-driven FMT (in words)” value in data set [3] was “full concentration-response curves could not be established”. In data set [4], the “cAMP pEC50” value is recorded as 5.39 ± 0.13 and the “cAMP Emax (% max)” value is 47.3 ± 3.40 % max.

As to Platelet-derived growth factor [PDGF], the “maximal proliferation (BrdU incorporation)” value in data set [2] (normalized to maximal proliferation observed with 10% serum) was found to be 41.0 ± 8.62%. For the same compound, in data set [5] (72 h treatment), the “EC50 for stimulation of proliferation (nuclei count)” value came to 3.77 ± 0.13 ng/mL. Further, in data set [5] (96 h treatment), the “EC50 for stimulation of proliferation (nuclei count)” value amounted to 7.26 ± 3.23 ng/mL and the “maximal proliferation (nuclei count)” value is on record as 29.2 ± 15.2 % of the maximal serum response.

As to `N#Cc1c(N)nc(SCC(N)=O)c(C#N)c1-c1ccc(OCC2CC2)cc1` [BAY60–6583], the “% cells positive … 1:10 dilution” value in data set [1] (setting [8]) was found to be 1.04 ± 0.38%. In addition, the “% cells positive … Top conc” value in data set [1] (HLF, top conc 30 μM) worked out at 0.62 ± 0.14%. In data set [2] (BrdU), the “inhibition of FBS- and PDGF-driven proliferation (in words)” value is “fully inhibit both FBS- and PDGF-driven proliferation”; the “maximal level of inhibition of PDGF-driven proliferation” value is reported as 100%. The “maximal level of inhibition of serum-driven proliferation” value in data set [2] (BrdU, near maximal FBS) came to 100%. Also, the “Proliferation vs PDGF Emax (% max)” value in data set [2] (setting [9]) is listed as 100 ± 0.01 % max. In addition, the “Proliferation vs PDGF pEC50” value in data set [2] (EC80 concentration of PDGF) is 5.30 ± 0.12. In addition, in data set [2] (EC80 concentration of serum), the “Proliferation vs serum pEC50” value was 5.30 ± 0.16. The “Proliferation vs serum Emax (% max)” value in data set [2] (setting [10]) was 100 ± 0.01 % max. Further, the “inhibition of TGFβ-driven FMT (in words)” value in data set [3] was “completely inhibit FMT”. In addition, in data set [4], the “cAMP pEC50” value is reported as 6.57 ± 0.06 and the “cAMP Emax (% max)” value is recorded as 10.2 ± 2.89 % max.

In the case of AGN-205204, the “% cells positive … 1:10 dilution” value in data set [1] (HLF, 1:10 dilution of top conc 10 μM) worked out at 0.56 ± 0.09%. The “% cells positive … Top conc” value in data set [1] (HLF, top conc 10 μM, mean ± SEM, n=3) turned out to be 0.57 ± 0.09%. Also, the “Proliferation vs PDGF Emax (% max)” value in data set [2] (setting [9]) is 101 ± 3.71 % max. Further, in data set [2] (EC80 concentration of PDGF), the “Proliferation vs PDGF pEC50” value was 7.45 ± 0.25. In data set [2] (EC80 concentration of serum), the “Proliferation vs serum pEC50” value is given as 6.91 ± 0.48. For the same compound, the “Proliferation vs serum Emax (% max)” value in data set [2] (setting [10]) is reported as 51.3 ± 8.89 % max. For the same compound, in data set [3], the “maximal level of inhibition of FMT” value is on record as 71 % of the TGFβ response. Besides, in data set [4], the “cAMP pEC50” value is given as 6.62 ± 0.12 and the “cAMP Emax (% max)” value was 49.7 ± 3.84 % max.

For the compound `COc1ccc(C2CNC(=O)C2)cc1OC1CCCC1` (stereo not shown) [Rolipram], the “inhibition of FBS- and PDGF-driven proliferation (in words)” value in data set [2] (BrdU) is “incapable of inhibiting the proliferation mediated by either stimulus”. Besides, the “inhibition of TGFβ-driven FMT (in words)” value in data set [3] is “full concentration-response curves could not be established”. Further, the “cAMP response (in words)” value in data set [4] (acute cAMP accumulation) is given as “no detectable cAMP accumulation”.
